One data set has as its system PANK2−/− IMR32 cells. Briefly: Coenzyme A assay in PANK2 silenced cells (LC-MS quantification of free CoA). The data set is classed as cell-based, human. Particulars: Homo sapiens, IMR-32; compound concentration 50 uM; fold increase in CoA levels relative to controls; treated twice, 24 h + 24 h. The procedure: A human neuroblastoma IMR32 cell line (ATCC) with stably PANK2 silencing was obtained by lentiviral-delivered small hairpin RNA and cultured in MEM (Invitrogen) supplemented with 10% fetal bovine serum, 2 mM glutamine, 1% penicillin-streptomycin, 1 mM sodium pyruvate, 1 mM non-essential amino acids, and 1.5 g/l sodium bicarbonate.
A non-silencing shRNA construct (scrambled shRNA) and an empty vector expressing GFP alone were used as negative controls. The GFP tag subcloned into the lentiviral vectors was used to monitor the transfection efficiency.
Three days after transduction medium was removed and replaced with fresh medium containing […] puromycin. […] The level of PANK2 expression in selected clones was assessed by Western Blot analysis.
To quantify CoA, PANK2−/− IMR32 cells were plated on 12-well culture plates (Corning) at a density of 0.2×10^6 cells per well. […] Controls with medium containing 0.1% DMSO without test compounds were also included in each plate. […] Before LC-MS analysis of CoA levels, cells were harvested, counted, and collected in a 15 ml falcon tube and centrifuged at 200×g for 5 min at 4° C. Supernatant was removed and cell pellet was washed in 10 ml of ice-cold PBS. To further confirm that the numbers of cells in each sample were equivalent, an equal fraction of pellet was collected from each sample and subjected to protein determination analysis. After centrifugation and supernatant removal, the cell pellet was rapidly frozen in Liquid Nitrogen and stored at −80° C. until analysis.
Intracellular CoA levels were calculated considering an intracellular volume of 1 million cells=2 μl.
The 1*10^6 cellular pellet was extracted with 120 μl of aqueous 20% TFA.
100 μL samples of supernatant were dried under N2 at 20° C. in the dark.
Samples were re-dissolved in 100 μl of 10 mM NH4^+ AcO^− buffer pH 5.1+IS (Dextrorphan 50 ng/ml), stirred for 2 min, sonicated in ultrasonic bath for 1 min, then stirred again for 1 min, and injected into LC-MS.
LC-MS/MS was performed using an Agilent HPLC (1100 Series, USA). The LC system was interfaced with an API-4000 Q-Trap triple quadrupole mass spectrometer (AB Sciex, Toronto, Canada) equipped with a TurboIonSpray ionization source operating in positive ion mode. Analyst™ software version 1.6 (AB Sciex, Toronto, Canada) was used for data acquisition and processing. CoA was separated using a Luna C18 column (2.0×50 mm; 5 μm particle size), column at 25° C. and flow rate of 0.2 ml/min. Injection volume was 15 μl. The mobile phases consisted of water containing 10 mM ammonium acetate pH 7 (mobile phase A) and MeCN-2-propanol 9:1 (mobile phase B).
Results are expressed as fold increase in CoA levels relative to controls (using LC-MS quantification of free CoA).

Data set [1] is described as follows: Stability in human plasma. The data set is classed as in vitro ADME. Particulars: 37° C., up to 60 min. The procedure:
The stability of selected compounds in human plasma was evaluated according to the following protocol. Compounds and positive control samples were dissolved in 100% DMSO at 3 mM. To investigate the stability of the test compounds in plasma, samples were made by diluting test compounds into plasma from the stock solutions to obtain a test compound concentration of 3 μM (0.1% DMSO). Before addition of a test compound, 990 μl of plasma were preincubated at 37° C. for 5 min in eppendorf. After addition of a test compound, 70 μl for each time point were transferred to a 96-deepwell plate, previously warmed at 37° C. in a DUBNOFF water bath. Each compound was tested at five time points, in duplicate (10, 20, 30, 40 and 60 min). At each time point, an aliquot of 50 μl was taken and transferred to a new 96-deepwell plate, and the reaction was stopped with 200 μl of 100% acetonitrile containing 0.1% formic acid and the appropriate internal standard. Then samples were centrifuged at 1100×g for 30 min at +4° C. and supernatants were transferred to a new 96-deepwell plate. Samples were evaporated under N2 and reconstituted in H2O/ACN 0.1% formic Acid (98:2). Analysis was performed without a calibration curve (Acquity UPLC-Waters; SciexAPI4000). Time 0 was obtained by adding acetonitrile before addition of the test compound.
(§1) Stability was determined based on analysis of disappearance of the compounds as a function of incubation time. Quantification of test compounds was measured as a peak area relative to an internal standard. The elimination constant k and half-life (t1/2) were determined as described above in Example 7.

The nature of data set [2]: Stability of compounds in human hepatocytes. The following applies: cryopreserved human hepatocytes in suspension, 37° C., 0-240 min. The data set is classed as in vitro ADME. The procedure:
(§2) Stability in hepatocytes for select compounds disclosed in the application was evaluated in two species (mouse and human) according to the following procedure. Compounds and positive control samples were dissolved in 100% DMSO at 5 mM. Cryopreserved hepatocytes were thawed and resuspended in Hepatocyte Basal Medium (HBM-Lonza CC-3199) supplemented with CC-4182 (complete hepatocyte culture medium). Test compounds were diluted into cell suspension (1 million cells/ml) from the stock solutions to have a test compound concentration of 5 μM (0.1% DMSO). Incubation was performed in 24-well plates, at 37° C. in a DUBNOFF water bath, under low shaking. Each compound was tested at 6 time points, in duplicates (0, 15, 30, 60, 120, and 240 min). At each time point, an aliquot of 120 μl was taken and transferred to a 96-well deep plate. The reaction was stopped with the addition of one volume of 100% acetonitrile plus 0.1% formic acid and the appropriate internal standard. Samples then were centrifuged at 1100×g for 30 min at +4° C. and supernatants were transferred to a new 96-deepwell plate. Samples were evaporated under N2 and reconstituted in H2O/ACN 0.1% formic Acid (98:2). Analysis was performed without a calibration curve (Acquity UPLC-Waters; Sciex API4000). Time 0 was obtained adding acetonitrile before addition of the test compound. Stability was determined based on analysis of disappearance of the compounds as a function of incubation time. Quantification of test compounds was measured as a peak area relative to an internal standard. The elimination constant, k, is calculated by plotting mean disappearance values on a semi-logarithmic scale and fitting with a best fit linear regression. The half-life (t1/2) expressed in hours was derived using Equation 1:
(§3) t1/2=ln 2/(−k). Equation 1: […]

Data set [3] can be described thus: Stability of compounds in mouse hepatocytes. Type of data set: in vitro ADME. Particulars: cryopreserved mouse hepatocytes in suspension, 37° C., 0-240 min. The procedure: as §2, §3
Data set [4] in a line: Stability in human whole blood. The following applies: 37° C., up to 60 min. Type of data set: in vitro ADME. As to the method:
The stability of selected compounds in human whole blood was evaluated according to the following protocol. Compounds and positive control samples were dissolved in 100% DMSO at 3 mM (stock solution). To investigate the stability of the test compounds in whole blood, a 200 μM working solution (WS) in water has been prepared by adding 66.66 μl of each 3 mM stock solution to 933.34 μl of water (6.66% DMSO content). After pre-incubation of the whole blood at 37° C. for 5 min in an eppendorf, 10.5 μl of each working solution were spiked into 689.5 μl of heated blood. The obtained 3 μM solution in blood (0.1% DMSO content) was quickly stirred and 100 μl for each time point were transferred to an eppendorf. Each compound was tested in duplicate at five time points (10, 20, 30, 40 and 60 min). At each time point, the reaction was stopped by quenching the spiked blood (100 μl) with 400 μl of 100% acetonitrile containing 0.1% formic acid. Then samples were centrifuged at 15600 rpm for 15 min at +4° C. and 200 μl of supernatant were transferred to a 96-deepwell plate. Samples were evaporated under N2 and reconstituted in H2O/ACN 0.1% formic Acid (98/2 v/v) containing the appropriate internal standard. Analysis was performed without a calibration curve by using an Acquity-UPLC (Waters) coupled to a triple quadrupole mass spectrometer (SciexAPI4000). Time point 0 was obtained by adding 3 μL of each 200 μM working solution to 997 μL of the supernatant obtaining after centrifugation (15600 rpm for 15 min at +4° C.) of the blank matrix quenched with acetonitrile containing 0.1% formic acid.
as §1

[5] abbreviates: Diastereoisomer A (upfield shift in 31P NMR), read-out: t1/2 (h) Human Plasma Diastereoisomer A (converted).
Setting [6] is: Diastereoisomer A (upfield shift in 31P NMR), read-out: t1/2 (h) Human Hepatocytes Diastereoisomer A (converted).
[7] abbreviates: Diastereoisomer A (upfield shift in 31P NMR), read-out: t1/2 (h) Mouse Hepatocytes Diastereoisomer A (converted).
Where [8] appears, read: Diastereoisomer A (upfield shift in 31P NMR), read-out: t1/2 (h) Human Whole Blood Diastereoisomer A (converted).
The mark [9] stands for this setting: Diastereoisomer B, read-out: t1/2 (h) Human Whole Blood Diastereoisomer B (converted).

For orientation: fold induction means the ratio of treated to control signal.

Each structure is given as a SMILES string.

`CC(=O)SCCNC(=O)CCNC(=O)[C@@H]1OP(=O)(N[C@@H](C)C(=O)OCCc2ccccc2)OCC1(C)C` (stereo partly drawn) [R1001, phenethyl ((4R)-4-((3-((2-(acetylthio)ethyl)amino)-3-oxopropyl)carbamoyl)-5,5-dimethyl-2-oxido-1,3,2-dioxaphosphinan-2-yl)-L-alaninate]: the fold induction at 50 µM with PANK2−/− IMR32 cells worked out at 3.5. Besides, the half-life at 3 μM in data set [1] (setting [5]) is above 1 h; in data set [1] (Diastereoisomer B, read-out: t1/2 (h) Human Plasma Diastereoisomer B (converted)), 0.36 h.
Regarding `CC(=O)SCCNC(=O)CCNC(=O)[C@@H]1O[P@@](=O)(OCOC(=O)C(C)(C)C)OCC1(C)C` [R1002, (((2S,4R)-4-((3-((2-(acetylthio)ethyl)amino)-3-oxopropyl)carbamoyl)-5,5-dimethyl-2-oxido-1,3,2-dioxaphosphinan-2-yl)oxy)methyl pivalate], the half-life at 3 μM in data set [1] (setting [5]) was 0.72 h. For the same compound, the half-life at 5 μM in data set [2] (setting [6]) and in data set [3] (setting [7]) was below 0.25 h in each case.
With `CC(=O)SCCNC(=O)CCNC(=O)[C@@H]1OP(=O)(OCOC(=O)NCCOC(=O)C(C)(C)C)OCC1(C)C` (stereo partly drawn) [R1008, 2-((((((4R)-4-((3-((2-(acetylthio)ethyl)amino)-3-oxopropyl)carbamoyl)-5,5-dimethyl-2-oxido-1,3,2-dioxaphosphinan-2-yl)oxy)methoxy)carbonyl)amino)ethyl pivalate], the fold induction at 50 µM with PANK2−/− IMR32 cells came to 41.2. The half-life at 5 μM in data set [2] (setting [6]) is 0.29 h; in data set [2] (Diastereoisomer B, read-out: t1/2 (h) Human Hepatocytes Diastereoisomer B (converted)) it was below 0.25 h; in data set [3] (setting [7]), below 0.25 h; in data set [3] (Diastereoisomer B, read-out: t1/2 (h) Mouse Hepatocytes Diastereoisomer B), below 0.25 h. For the same compound, the figures for the half-life at 3 μM in data set [4] (setting [8]) and in data set [4] (setting [9]) were 0.5 h and 0.23 h, respectively.
`CC(=O)OCOP1(=O)OCC(C)(C)[C@H](C(=O)NCCC(=O)NCCSC(C)=O)O1` (stereo partly drawn) [R1022, (((4R)-4-((3-((2-(acetylthio)ethyl)amino)-3-oxopropyl)carbamoyl)-5,5-dimethyl-2-oxido-1,3,2-dioxaphosphinan-2-yl)oxy)methyl acetate]: the fold induction at 50 µM with PANK2−/− IMR32 cells is 114. The half-life at 3 μM in data set [4] (setting [8]) and in data set [4] (setting [9]) was below 0.16 h in each case.
Regarding `CC(=O)SCCNC(=O)CCNC(=O)[C@@H]1OP(=O)(OCOC(=O)NCCSC(=O)C(C)(C)C)OCC1(C)C` (stereo partly drawn) [R1023, S-(2-((((((4R)-4-((3-((2-(acetylthio)ethyl)amino)-3-oxopropyl)carbamoyl)-5,5-dimethyl-2-oxido-1,3,2-dioxaphosphinan-2-yl)oxy)methoxy)carbonyl)amino)ethyl) 2,2-dimethylpropanethioate], the fold induction at 50 µM in the data set with PANK2−/− IMR32 cells amounted to 17. The half-life at 3 μM was 0.31 h in data set [4] (setting [8]) and 0.17 h in data set [4] (setting [9]).
For `CC(=O)SCCNC(=O)CCNC(=O)[C@@H]1O[P@](=O)(OCOC(=O)NCCOC(=O)C(C)(C)C)OCC1(C)C` [R1031, 2-((((((2R,4R)-4-((3-((2-(acetylthio)ethyl)amino)-3-oxopropyl)carbamoyl)-5,5-dimethyl-2-oxido-1,3,2-dioxaphosphinan-2-yl)oxy)methoxy)carbonyl)amino)ethyl pivalate] the same measures were 23.2, 0.41 h and 0.25 h.
